Results published in ChEMBL document CHEMBL1142078, “Detection of a new SHV-type extended-spectrum beta-lactamase, SHV-31, in a Klebsiella pneumoniae strain causing a large nosocomial outbreak in The Netherlands” (2007).
Values after ≈ are worked out from the molar mass of the structure shown. One block for each compound: values may come before it.

Legend:
Format in all cases: functional
Escherichia coli [1] = test: Antimicrobial activity against Escherichia coli XL10/pSHV-31
Klebsiella pneumoniae = test: Antimicrobial activity against Klebsiella pneumoniae KPN15-NL
Escherichia coli [2] = test: Antimicrobial activity against Escherichia coli XL10/vector

Compound: C[C@@H](O)[C@H]1C(=O)N2C(C(=O)O)=C(S[C@@H]3CN[C@H](C(=O)Nc4cccc(C(=O)O)c4)C3)[C@H](C)[C@H]12 [ERTAPENEM]
MIC (Escherichia coli [1]): ≤ 0.06 µg/mL
MIC (Klebsiella pneumoniae): ≤ 0.06 µg/mL

MIC (Escherichia coli [1]): > 128 µg/mL
MIC (Klebsiella pneumoniae): > 128 µg/mL
Compound: CC1(C)S[C@@H]2[C@H](NC(=O)[C@H](N)c3ccccc3)C(=O)N2[C@H]1C(=O)O [AMPICILLIN]

Compound: C[C@H]1[C@H](NC(=O)/C(=N\OC(C)(C)C(=O)O)c2csc(N)n2)C(=O)N1S(=O)(=O)O [AZTREONAM]
MIC (Escherichia coli [2]): 0.12 µg/mL (≈ 0.276 µM)
MIC (Escherichia coli [1]): > 128 µg/mL
MIC (Klebsiella pneumoniae): > 128 µg/mL

Compound: CO/N=C(\C(=O)N[C@@H]1C(=O)N2C(C(=O)O)=C(COC(C)=O)CS[C@H]12)c1csc(N)n1 [CEFOTAXIME]
MIC (Escherichia coli [2]): ≤ 0.06 µg/mL
MIC (Escherichia coli [1]): 4 µg/mL (≈ 8.78 µM)
MIC (Klebsiella pneumoniae): 8 µg/mL (≈ 17.6 µM)

Compound: CCN1CCN(C(=O)N[C@@H](C(=O)N[C@@H]2C(=O)N3[C@@H]2SC(C)(C)[C@@H]3C(=O)O)c2ccccc2)C(=O)C1=O [PIPERACILLIN]
MIC (Escherichia coli [2]): 1 µg/mL (≈ 1.93 µM)
MIC (Escherichia coli [1]): 64 µg/mL (≈ 124 µM)
MIC (Klebsiella pneumoniae): > 128 µg/mL

Compound: C[C@@H](O)[C@H]1C(=O)N2C(C(=O)O)=C(SCCNC=N)C[C@H]12 [IMIPENEM ANHYDROUS]
MIC (Escherichia coli [1]): ≤ 0.06 µg/mL
MIC (Klebsiella pneumoniae): ≤ 0.06 µg/mL

Compound: CO/N=C(\C(=O)N[C@@H]1C(=O)N2C(C(=O)[O-])=C(C[N+]3(C)CCCC3)CS[C@H]12)c1csc(N)n1 [CEFEPIME]
MIC (Escherichia coli [2]): ≤ 0.06 µg/mL
MIC (Escherichia coli [1]): 0.5 µg/mL (≈ 1.04 µM)
MIC (Klebsiella pneumoniae): 1 µg/mL (≈ 2.08 µM)

Compound: CC1(C)S[C@@H]2[C@H](NC(=O)[C@H](N)c3ccc(O)cc3)C(=O)N2[C@H]1C(=O)O [AMOXICILLIN]
MIC (Escherichia coli [2]): 16 µg/mL (≈ 43.8 µM)
MIC (Escherichia coli [1]): > 128 µg/mL
MIC (Klebsiella pneumoniae): > 128 µg/mL

Compound: CO[C@@]1(NC(=O)Cc2cccs2)C(=O)N2C(C(=O)O)=C(COC(N)=O)CS[C@@H]21 [CEFOXITIN]
MIC (Escherichia coli [2]): 1 µg/mL (≈ 2.34 µM)
MIC (Escherichia coli [1]): 1 µg/mL (≈ 2.34 µM)
MIC (Klebsiella pneumoniae): 16 µg/mL (≈ 37.4 µM)

Compound: CC(C)(O/N=C(\C(=O)N[C@@H]1C(=O)N2C(C(=O)[O-])=C(C[n+]3ccccc3)CS[C@H]12)c1csc(N)n1)C(=O)O [CEFTAZIDIME]
MIC (Escherichia coli [2]): 0.12 µg/mL (≈ 0.22 µM)
MIC (Escherichia coli [1]): 32 µg/mL (≈ 58.5 µM)
MIC (Klebsiella pneumoniae): 128 µg/mL (≈ 234 µM)
